By AC50 is commonly meant the concentration at which the activity in the assay is half-maximal.

Activity calls are given as the source filed them.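 Rule for the calls: active = AC50, the dose giving half-maximal effect, exceeds a fixed cutoff for a compound that rescues yeast growth under heat; inactive = the rest, inconclusive results apart.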

This assay has as its system S. cerevisiae Burl-1 ts mutant growth, BacTiter-Glo, 38.5C 24 h. Put plainly: restored growth of temperature-sensitive Burl-1 yeast – whole organism, S. cerevisiae, Burl-1 ts mutant, luminescence, counter-screen for SUMOylation pathway inhibitor project, dose response (AID 463199). For orientation: A counterscreen serves to expose hits that act by an unwanted route or on another target.
As to `O=C(CN1CCN(Cc2ccc(F)cc2)CC1)NCc1ccccc1`, the AC50 was > 42 µM (inactive).

For `COc1ccc(NC(=O)CC(C)C)c(OC)c1`, the AC50 is > 42 µM (inactive).

Take `Cc1ccc(/C=N/NC(=O)NC23CC4CC(CC(C4)C2)C3)o1`: the AC50 was > 42 µM (inactive).

For `COc1ccc2[nH]c(C(=O)N/N=C/c3ccccc3OC)cc2c1`, the AC50 was > 42 µM (inactive).

In the case of `CCNC(=O)NC1c2ccccc2CSc2ccccc21` (centres undefined), the AC50 is > 42 µM (inactive).

As for `Cc1ccccc1C(=O)/C=C1\NC(=O)CS1`, the AC50 was > 21 µM (inactive).

Regarding `CC(NC(=O)OCc1ccccc1)C(=O)N1CC(O)CC1C(=O)O` (centres undefined), the AC50 was > 21 µM (inactive).

Turning to `CCN(C(=O)CCS(=O)(=O)c1ccc2c(c1)oc(=O)n2C)c1ccc(OC)cc1`, the AC50 was > 42 µM (inactive).

`CC(=O)Nc1cccc2c1C(=O)N(c1ccccc1C)C2=O`: the AC50 was > 42 µM (inactive).

For the compound `CCOC(=O)C1ON2CCCCC2C1(O)C(F)(F)F` (centres undefined), the AC50 was > 42 µM (inactive).

Regarding `CCN(CC)CCCN1C(=O)C(=O)/C(=C(/O)c2ccccc2)C1c1cc(OC)ccc1OC` (centres undefined), the AC50 is > 42 µM (inactive).

As for `Cc1cc(C)nc(SCC2COc3ccccc3O2)n1` (centres undefined), the AC50 is > 42 µM (inactive).

As for `COCCNCc1ccccc1`, the AC50 was > 42 µM (inactive).

Regarding `CC(C)Cc1nc(N2CCOCC2)c(C#N)c2c1CCC2`, the AC50 is > 42 µM (inactive).

Consider `Cc1ccc(S(=O)(=O)Nc2n[nH]nc2C(=O)NC2CCCCC2)cc1`, for which the AC50 is > 42 µM (inactive).

For `COc1ccc(C2C(C(C)=O)=C(O)C(=O)N2CCO)c(OC)c1` (centres undefined), the AC50 is > 42 µM (inactive).

As for `CCOC(=O)Cn1c(=O)n(Cc2ccco2)c(=O)c2ccc(C(=O)NCCc3ccccc3)cc21`, the AC50 is > 42 µM (inactive).

Turning to `CCC(C)NC(=O)CSc1nnc(-c2cc(-c3ccc(C)cc3)nc3ccccc23)n1N` (centres undefined), the AC50 is > 42 µM (inactive).

As for `CC(=O)c1ccccc1C(=O)N1CCCC(N2CCN(Cc3ccc4c(c3)OCO4)CC2)C1` (centres undefined), the AC50 is > 42 µM (inactive).

Consider `CN1C(=O)c2ccc(NC(=S)NC(=O)C(C)(C)C)cc2C1=O`, for which the AC50 is > 42 µM (inactive).

For `CCN(C(=O)COC(=O)c1c(-c2ccccc2)noc1C)c1c(N)n(Cc2ccccc2)c(=O)[nH]c1=O`, the AC50 was > 42 µM (inactive).

Regarding `CCOc1cc(/C=C2\NC(=O)NC2=O)ccc1OC(C)C(=O)O` (centres undefined), the AC50 was > 42 µM (inactive).

`CC(Oc1ccc([N+](=O)[O-])cc1)C(=O)NCCCN1CCOCC1` (centres undefined): the AC50 is > 42 µM (inactive).

Take `N#C/C(=C\c1cn(-c2ccccc2)nc1-c1cccnc1)c1nnc2n1CCCCC2`: the AC50 was > 42 µM (inactive).

In the case of `CCC(C)NCCCCOc1cc(C)cc(C(C)C)c1` (centres undefined), the AC50 was > 42 µM (inactive).

Turning to `Cc1ccc(NC(=O)C(CC(C)C)NC(=O)C2CCC(C)CC2)nc1` (centres undefined), the AC50 is > 42 µM (inactive).

Consider `CC(=O)NCc1c(Cl)cccc1-n1cccc1`, for which the AC50 is > 42 µM (inactive).

Consider `CN(CCOc1ccc(Cl)cc1)CC(=O)Nc1ccc(OC(F)F)cc1`, for which the AC50 was > 42 µM (inactive).

Regarding `CN/C(=C/[N+](=O)[O-])NCCSCc1ccc(CN(C)C)o1`, the AC50 is > 42 µM (inactive).

Turning to `O=C1C2CCCN2C(=S)N1C1CCCCC1` (centres undefined), the AC50 is > 42 µM (inactive).

As to `O=C(CCS(=O)(=O)c1ccc(Br)s1)NCc1ccccc1`, the AC50 was > 42 µM (inactive).

Regarding `Cn1c(CCN2CCOCC2)nc2cc(NC(=O)COc3ccccc3)ccc21`, the AC50 was > 42 µM (inactive).

As to `CC(C)C(NC(=O)c1ccccc1)C(=O)NCC(c1ccccc1)N(C)C` (centres undefined), the AC50 was > 42 µM (inactive).

For `COc1ccc(NC(=O)c2ccc(-c3csc(C)n3)cc2)cc1`, the AC50 was > 42 µM (inactive).

Regarding `CC(=O)c1ccc2noc(-c3ccc(F)cc3)c2c1`, the AC50 was > 42 µM (inactive).

For the compound `COc1ccc(-c2csc(NC(=O)CS(=O)(=O)c3ccc(F)cc3)n2)cc1OC`, the AC50 is > 42 µM (inactive).

Turning to `CCN(CC1COc2ccccc2O1)C(=S)NCCCN(C)C` (centres undefined), the AC50 is > 42 µM (inactive).

Consider `CNC(=O)c1ccccc1S(=O)c1ccccc1COC(C)=O` (centres undefined), for which the AC50 is > 42 µM (inactive).

In the case of `CCN(CC)C(=O)Cn1cc(S(=O)(=O)CC(=O)NCCc2ccc(OC)c(OC)c2)c2ccccc21`, the AC50 is > 42 µM (inactive).

In the case of `CN(CC(=O)Nc1cccc(F)c1)CC(=O)Nc1cccc(S(N)(=O)=O)c1`, the AC50 was > 42 µM (inactive).

For the compound `COc1ccc(OCCC(=O)c2ccc(OC)cc2)cc1`, the AC50 was > 42 µM (inactive).

For `NC(=S)N/N=C/c1cccc(O)c1O`, the AC50 is > 42 µM (inactive).

For `O=C(c1ccc2c(=O)n(Cc3ccccc3Cl)c(=S)[nH]c2c1)N1CCOCC1`, the AC50 is > 42 µM (inactive).

In the case of `O=C(CS(=O)c1ccc(C(F)(F)F)cc1[N+](=O)[O-])Oc1ccc(Cl)cc1` (centres undefined), the AC50 is > 42 µM (inactive).

Consider `CC[n+]1c(/C=C/N(C)c2ccccc2)n(-c2ccccc2)c2ccc(-c3nc4ccccc4s3)cc21`, for which the AC50 was > 42 µM (inactive).

Turning to `Cc1cccc2nc(COc3ccc4ccccc4c3Br)cn12`, the AC50 is > 42 µM (inactive).

Consider `O=C(COc1ccc(-n2cnnn2)cc1)NCCc1ccc(F)cc1`, for which the AC50 was > 42 µM (inactive).

In the case of `CC(C)(c1ccccc1)c1ccc(OCCN2CCOCC2)cc1`, the AC50 is > 42 µM (inactive).

On to `CC1=C(C(=O)OCc2ccccc2)C(c2cccc(F)c2)NC(=O)N1` (centres undefined), for which the AC50 is > 42 µM (inactive).

With `Clc1ccccc1-c1ccc2ncnc(NCc3cccs3)c2c1`, the AC50 is > 42 µM (inactive).

`CCOC(=O)c1cnc2oc3ccccc3n2c1=O`: the AC50 is > 42 µM (inactive).

`CSCC[C@H](NC(=O)CC(C)(C)C)c1nc2ccccc2[nH]1`: the AC50 is > 42 µM (inactive).

Take `Cc1ccc(F)cc1NS(=O)(=O)c1ccc(Cl)s1`: the AC50 was > 42 µM (inactive).

For `Cc1ccc(C(=O)N/C(=C/c2ccccc2)C(=O)NCC2CCCO2)cc1` (centres undefined), the AC50 was > 21 µM (inactive).

As for `CC1=C(C(N)=O)C(c2ccccn2)n2nc(SCc3ccccc3Cl)nc2N1` (centres undefined), the AC50 is > 42 µM (inactive).

With `Cc1cc(NC(=O)c2ccc(N3C(=O)CCC3=O)cc2)no1`, the AC50 was > 42 µM (inactive).

On to `O=C(O)CCc1ccc(-c2ccccc2)n1NC(=O)c1cccs1`, for which the AC50 was > 42 µM (inactive).

As for `COc1ccccc1N1CCN(C(=O)c2sc3ncnc(N4CCN(c5ccccn5)CC4)c3c2C)CC1`, the AC50 is > 42 µM (inactive).

As to `Fc1ccc(-c2n[nH]c(=S)n2CC2CCCO2)cc1` (centres undefined), the AC50 was > 42 µM (inactive).

For the compound `CCOC(=O)C1CCN(C(=O)c2ccc3c(c2)NC(=O)/C(=C/c2ccccc2)S3)CC1`, the AC50 was > 42 µM (inactive).

`O=C(CCC(F)(F)F)N1CCCC(CO)(CCc2ccccc2)C1` (centres undefined): the AC50 was > 42 µM (inactive).

Take `CC(C)(C)CC(=O)Nc1cc(S(=O)(=O)N2CCOCC2)ccc1N1CCCC1`: the AC50 was > 42 µM (inactive).

Regarding `CC(C)(C)c1cc(NCCCn2ccnc2)n2ncc(-c3ccc(Cl)cc3)c2n1`, the AC50 was > 42 µM (inactive).

Consider `O=C(O)CNS(=O)(=O)Cc1ccccc1`, for which the AC50 was > 42 µM (inactive).

With `COc1ccc(OC)c(N(CC(=O)N2CCCC2)S(=O)(=O)c2ccccc2)c1`, the AC50 was > 42 µM (inactive).

As to `Cc1ccc(C(=O)NC(Cc2c[nH]c3ccccc23)C(=O)O)o1` (centres undefined), the AC50 is > 42 µM (inactive).

In the case of `COCCNC(=O)C(=O)N/N=C(\C)CC(=O)Nc1cccc(C(F)(F)F)c1`, the AC50 was > 42 µM (inactive).

In the case of `CC1CCC(C(C)C)C(OC(=O)COC(=O)c2cccn2C)C1` (centres undefined), the AC50 was > 42 µM (inactive).

For `Cc1cccc(CS(=O)(=O)Cc2ccc(C(=O)NCC3CCCO3)o2)c1` (centres undefined), the AC50 was > 42 µM (inactive).

For `N#C/C(=C\c1ccc(O)c(O)c1)C(=O)Nc1ccccc1`, the AC50 was > 42 µM (inactive).

Take `CCCC(=O)N(CCN1CCOCC1)c1nc2ccc(OCC)cc2s1`: the AC50 was > 42 µM (inactive).

As for `COc1cc(/C=N/NC(=O)c2ccncc2)ccc1OC(=O)c1ccco1`, the AC50 is > 42 µM (inactive).

For `CN(C)/C=C/C(=O)c1ccncc1`, the AC50 is > 42 µM (inactive).

With `O=C(Nc1ccc(OC(F)(F)F)cc1)c1ccc2ccccc2n1`, the AC50 was > 42 µM (inactive).

In the case of `COc1cc(OC)cc(OC(=O)c2ccc3c(=O)n4c(nc3c2)CCC4)c1`, the AC50 is > 42 µM (inactive).

Consider `O=c1c2ccccc2ncn1-c1ccc(Cl)cc1Cl`, for which the AC50 was > 42 µM (inactive).

For the compound `CC(C)(C)c1ccc(CN(Cc2ccccc2)C(c2ccccn2)c2nnnn2C(C)(C)C)cc1` (centres undefined), the AC50 is > 42 µM (inactive).

As to `CCN(CCn1cccn1)C(=O)C1CCC(=O)N(CCc2cccc(F)c2)C1` (centres undefined), the AC50 is > 42 µM (inactive).

As to `O=C(NCc1ccccc1Cl)C(=O)NCC1CCCN1S(=O)(=O)c1cccs1` (centres undefined), the AC50 is > 42 µM (inactive).

Take `O=C(CCC(=O)Nc1ccc(F)cc1)N/N=C/c1cccs1`: the AC50 was > 42 µM (inactive).

For the compound `Cc1cccn2c(=O)c3cc(C(=O)NCCc4ccccc4)sc3nc12`, the AC50 is > 42 µM (inactive).

Turning to `COc1ccc(C(=O)OCC(=O)c2ccccc2)cc1S(=O)(=O)N1CCOCC1`, the AC50 was > 42 µM (inactive).

For `Cn1c(O)c(C(c2ccccn2)c2c(O)n(C)c(=S)n(C)c2=O)c(=O)n(C)c1=S`, the AC50 was > 42 µM (inactive).

In the case of `CCOC(=O)C1=C(C)Nc2ncnn2C1/C=C/c1ccccc1` (centres undefined), the AC50 is > 42 µM (inactive).

`COC(=O)c1ccc(N2C(=O)CC(NCc3ccccc3)C2=O)cc1` (centres undefined): the AC50 was > 42 µM (inactive).

Turning to `COc1ccc(-n2nc(C(=O)NCC(=O)N3CCCC3)c3ccccc3c2=O)c(OC)c1`, the AC50 is > 42 µM (inactive).

Consider `CCS(=O)(=O)c1nc(S(=O)(=O)c2ccc(Cl)cc2)c(N2CCc3ccccc3C2)s1`, for which the AC50 is > 42 µM (inactive).

Turning to `S=c1[nH]nc(-c2ccco2)n1-c1ccc(Br)cc1`, the AC50 is > 42 µM (inactive).

Turning to `COc1ccc(NC(=S)Nc2ccccc2OC)c(OC)c1`, the AC50 was > 42 µM (inactive).

The values are drawn from PubChem BioAssay AID463199 (Broad Institute, 2010).
